Source: patent US8066972B2, “Altering memory by affecting staufen function” (Helicon Therapeutics, Inc., priority 2002, dated 2011)

System: C57B1/6 male mice
Experiment: Contextual fear conditioning (weak versus strong training), 4-day contextual memory scored as freezing, after intra-hippocampal infusion
Type: in vivo, mouse
Parameters: effect on memory induced by strong training: dose or concentration left out as unconfirmed
Conditions: tested 4 days after training; for freezing responses: ANI 62.5 μg/2 μl per hippocampus immediately after training
Protocol: Ten to twelve week old C57B1/6 male mice (Taconic Laboratory, N.Y.) were used. Mice were housed in groups of four in standard mouse cages and kept in a 12:12 light-dark cycle and constant temperature (22° C.) in a humidity and ventilation-controlled animal house. With the exception of surgery, training and testing times, the mice had ad lib access to food and water. Animals were acclimatized to animal house environment for a week before surgery. On a day of surgery, mice were anesthetized with 20 mg/kg Avertin and implanted with a 26-gauge guide double cannula aimed at the dorsal hippocampus using a stereotaxic apparatus (Korf Instruments, Calif.; coordinates: P=1 mm; 5 mm to a depth 1-1.2 mm; Franklin and Paxinos, The Mouse Brain In Stereotaxis Coordinates, Academic Press, San Diego, Calif. (1997)). After the end of surgery, animals were individually maintained in a cage with ad lib access to food and water. Seven days after recovery from surgery, animals were trained for contextual fear conditioning.
The basic fear conditioning procedures and equipment remained as described (Bourtchuladze, R. et al., Cell, 79:59-68 (1994); and Bourtchouladze et al., Learn Mem., 5(4-5):365-374 (1998)). On the training day, the mouse was placed in the conditioning chamber (Med Associates) for 2 minutes before the onset of unconditioned stimulus (US) of 0.5 mA, two seconds shock. For weak training, US was repeated two times with a one minute inter-trial interval between shocks. For strong training, 5 USs were given. Training was automated and performed by computerized software package (Med Associates).
Thirty seconds after the end of the last trial, the mouse was returned to its home cage. The conditioning chamber was cleaned with 75% ethanol and then with water. Contextual memory was tested four days after training by scoring freezing responses. Freezing was assessed with a sampling method. That is, 2 second observations were taken every 5 seconds (Bourtchuladze, R. et al., Cell, 79:59-68 (1994); Bourtchouladze et al., Learn Mem., 5(4-5):365-374 (1998); and Frankland, P. W. et al., Behav. Neurosci., 112:863-874 (1998)). A mouse was detminined to be freezing when it adopted a motionless posture, refraining from all but respiratory movements.
For each training and drug-injecting procedure, an experimentally nave group of animals was used. The observations were made by an experimenter unaware of the experimental treatment of the mice. In each experiment, both training and testing were videotaped. Experiments were analyzed with an analysis of variance (ANOVA) and t-tests.
Anisomycin (ANI) (Sigma) was dissolved in 0.9% saline, and the pH was adjusted with 1 N HCl to 7.4. Control animals received injections of saline. Mice were injected in the hippocampus (62.5 μg/2 μl per hippocampus) immediately after training. Infusions were made through the guide cannula using a 33-gauge injection needle. The needle was connected via a polyethylene tube to a microsyringe fixed in the pump 11 (Harvard Instruments). The entire infusion procedure took 2 minutes and animals were freely moving during this time in the home cage. Experiments were replicated 2 times and for each training procedure, an experimentally nave group of animals was used (n=47 total).
Mouse antisense oligodeoxynucleotides (ODNs) directed against CREB mRNA (5′-T-s-g-s-g-s-T-C-A-T-T-g-T-T-A-C-C-g-s-g-s-T-s-g-3′) (SEQ ID NO:1) was used to disrupt hippocampal CREB protein levels. Control groups received infusions of ODN of the same base composition but in randomized order (scrambled CREB: 5′-g-s-T-s-C-s-T-g-T-A-g-T-C-g-A-T-C-T-A-T-s-g-s-g-s-T3′) (SEQ ID NO:2). ODNs were administered into the hippocampus (2 nmol/2 μl per hippocampus) as described above for ANI-infusion. CREB ODNs were infused 20 hours before training. Experiments were replicated 3 times and for each training procedure, an experimentally nave group of animals was used (n=54 total). […]

Row | Compound | freezing responses (strong training (5 USs)) [%] | freezing responses (weak training (2 USs)) [%] | effect on memory induced by weak training (ANI 62.5 mg/2 μl per hippocampus immediately after training, weak training, vs vehicle) | effect on memory induced by strong training (ANI per hippocampus immediately after training, strong training, vs vehicle) | effect on memory induced by weak training (Rolipram 0.03 ng into hippocampus, weak training (2 trials)) | effect on memory induced by weak training (Rolipram 3 ng into hippocampus, weak training (2 trials)) | effect on memory induced by weak training (Rolipram 30 ng/1 μl per hippocampus immediately after training, 2 trials, vs vehicle) | effect on maximal memory levels produced by strong training (Rolipram 30 ng/1 μl per hippocampus immediately after training, 5 trials, vs vehicle)
1 | COc1ccc(C[C@H]2NC[C@H](O)[C@H]2OC(C)=O)cc1 [ANI, Anisomycin] | 28.42±4.9 | 17.1±4.3 | significantly impaired memory | significantly impaired memory | – | – | – | –
2 | COc1ccc(C2CNC(=O)C2)cc1OC1CCCC1 (centres unmarked) [Rolipram] | – | – | – | – | had no memory enhancing effect | produced memory enhancing effect | significantly enhanced the amount of memory | had no effect
